We go through seven molecules from patent US4489003A, “Imidazobenzodiazepines” (Hoffmann-La Roche Inc., priority 1982, dated 1984).

For series [1], the target named is central benzodiazepine receptors. Put plainly: inhibition of the binding of tritiated diazepam at the specific benzodiazepine receptors in the cerebral cortex. The note with it: [3H]diazepam. As to the method:
The affinity of compounds of general formula I to the central benzodiazepine receptors was determined according to the method described in Life Science 20, 2101-2110 (1977) and Science 198, 849-851 (1977). According to this method, the inhibition of the binding of tritiated diazepam at the specific benzodiazepine receptors in the cerebral cortex by the respective test substances is ascertained. The IC50 ("50% inhibiting concentration") is that concentration of the respective test substance which brings about a 50 percent inhibition of the specific binding of the tritiated diazepam at the specific benzodiazepine receptors in the cerebral cortex.

For series [2], the system named is spasmodic seizures caused by pentetrazole. Put plainly: antipentetrazole test. The class given is in vivo. To be noted: Rattus norvegicus, po, 0.5 h; female rats 60-80 g, p.o. 30 minutes before 120 mg/kg pentetrazole i.p. The protocol:
The central properties of the compounds of formula I provided by the present invention can be determinded, for example, in the antipentetrazole test which is described hereinafter and which is generally recognized for recording anticonvulsant properties.
In this animal experiment the compound under investigation is administered orally to female rats weighing 60-80 g and 30 minutes later there are administered intraperitoneally 120 mg/kg of pentetrazole which causes emprosthotonus and tonic stretchings of the fore and/or hind limbs in unprotected experimental animals 1 to 4 minutes after the injection. Ten experimental animals are used per dosage of test substance. After counting the protected experimental animals, the ED50 is determined according to the Probit method. The ED50 is that dosage which protects 50% of the experimental animals from the spasmodic seizures caused by pentetrazole.

Series [3] concerns sedative, muscle relaxant and motor coordination-disturbing activity caused by high dosages of diazepam. Put plainly: traction test (antagonism of diazepam). The series is classed as in vivo. To be noted: Mus musculus, po, 0.25 h; mice, p.o. 15 minutes after 3 mg/kg diazepam i.p. As to the method: In this animal experiment the ability of the test substances to antagonise the sedative, muscle relaxant and motor coordination-disturbing activity caused by high dosages of diazepam is determined.
Mice weighing 17-29 g are lifted by the tail and are allowed to grip a taut horizontal wire (length 15 cm, height 20 cm, diameter 1 mm) with the front paws, whereupon the experimental animals are released. Untreated control animals are capable of gripping the wire with both front paws and at least one hind paw within 3 seconds. If 3 mg/kg of diazepam are administered intraperitoneally to the experimental animals, then their aforementioned capabilities disappear, i.e. they are no longer capable of gripping the taut horizontal wire within 3 seconds with both front paws and at least one hind paw. 15 minutes after the administration of diazepam the compound under investigation is administered orally to the experimental animals, whereupon there are counted those animals which have regained the aforementioned capabilities. The ED50 is that dosage which in 50% of the experimental animals antagonizes the action of diazepam, i.e. counteracts this.

Series [4] in a line: acute toxicity, single oral administration. To be noted: rat, in vivo; single oral administration to rats. The source says:
The results obtained with representative compounds of formula I in the experiments described earlier are compiled in the following Table. The Table also contains data concerning the acute toxcity of some of these compounds (LD50 in mg/kg following single oral administration to rats).

One may read the IC50 as the midpoint of a concentration-inhibition curve. Low values mean greater potency, high ones weaker potency. A word on the ED50: it is the dose at which the effect has come halfway, by size or by number of responders. Low values mean greater potency, high ones weaker potency. As a reminder, the LD50 is the dose expected to kill half of the subjects tested. High values mean a less toxic substance, low ones a more toxic substance. For `O=C(OCC1CC1)c1ncn2c1[C@@H]1CCCN1C(=O)c1c(Cl)cccc1-2`, the IC50 in series [1] amounted to 2300 nM. For the same molecule, the results for the ED50 in series [2] and in series [3] were 0.66 mg/kg and 0.8 mg/kg, respectively. This molecule also gave an LD50 in series [4] of 1000 to 2000 mg/kg.

In series [1], `O=C(OCC1CC1)c1ncn2c1[C@@H]1CCN1C(=O)c1c(Cl)cccc1-2` came in with an IC50 of 1100 nM. Further, the ED50 was 0.27 mg/kg in series [2] and under 30 mg/kg in series [3].

Take `O=C(OCc1ccccc1)c1ncn2c1[C@@H]1CCCN1C(=O)c1c(Cl)cccc1-2`: the IC50 in series [1] was 1500 nM. For the same molecule, the 50% effective dose (ED50) in series [2] was over 100 mg/kg; in series [3], 0.09 mg/kg.

As for `O=C(OC1CCCCC1)c1ncn2c1[C@@H]1CCCN1C(=O)c1c(Br)cccc1-2`, the IC50 in series [1] came out at 2700 nM. For the same molecule, the median effective dose (ED50) in series [2] is 7 mg/kg; in series [3], under 30 mg/kg. This molecule also gave an LD50 in series [4] of over 5000 mg/kg.

Turning to `O=C(OCC1CC1)c1ncn2c1[C@@H]1CCCN1C(=O)c1c(Br)cccc1-2`, in series [1], the IC50 was determined as 2600 nM. The values for the median effective dose (ED50) in series [2] and in series [3] were 0.63 mg/kg and under 30 mg/kg, respectively. In addition, the LD50 in series [4] is 625 to 1250 mg/kg.

In turn, `O=C(OC1CCCCC1)c1ncn2c1[C@@H]1CCCN1C(=O)c1c(I)cccc1-2` registered a 50% inhibitory concentration (IC50) in series [1] of 2100 nM. Moreover, the ED50 in series [2] is 2.2 mg/kg; in series [3], over 30 mg/kg. For the same molecule, the LD50 in series [4] was over 5000 mg/kg.

As for `C#CCOC(=O)c1ncn2c1[C@@H]1CCCN1C(=O)c1c(Cl)cccc1-2` [Example 27, 2-propynyl (S)-8-chloro-11,12,13,13a-tetrahydro-9-oxo-9H-imidazo[1,5-a]pyrrolo[2,1-c][1,4]benzodiazepine-1-carboxylate], the 50% inhibitory concentration (IC50) in series [1] stood at 2100 nM. Also, the values for the 50% effective dose (ED50) in series [2] and in series [3] were over 100 mg/kg and 0.005 mg/kg, respectively.
